Marks after values point to notes of the source that are not given here.
Experiments:
[1] = system: cow clinical endometritis; test: treatment of cow clinical endometritis; format: in vivo, cows; conditions: n = 10
Experimental: Anemoside B4 injection prepared in example 3, with a concentration of 50 mg/mL; Anemoside B4 intrauterine injection prepared in example 5, with a concentration of 50 mg/mL.
Positive drug: doxycycline hydrochloride intrauterine injection (24 g/injection, produced by Zhengzhou Bairui Animal Pharmaceutical Co., Ltd., batch No.: 170901).
130 cows with disease were randomly divided into 13 groups, 10 cows for each group.
The cows selected in this experiment were all those with clinical endometritis. During the experiment, the temperature, spirit and diet of the cows were normal.
Administration by […] injection: Administrating anemoside B4 by intramulscular injection, twice per day, one in the morning and another in the evening, for successive four days;
Administration by intrauterine infusion: administrating anemoside B4 and positive drug doxycycline hydrochloride by intrauterine infusion, once every other day, for 4 times.
A blank control group was set up in different administration routes, and the same dose of normal saline was administered.

cow foot rot disease = test: treatment of cow foot rot disease; format: in vivo, cows; conditions: for Milk production (daily yield) / Total number of cured cows: n = 10
canine parvovirus = test: treatment of canine parvovirus; format: in vivo, dogs; parameters: White blood cell count: unit not given here; conditions: 14 days, n = 10
Experimental: (§1) Anemoside B4 injection prepared in example 3, with a concentration of 50 mg/mL.
Dogs suffering from canine parvovirus are cases received by various pet hospitals in Chengdu.
In the early, dogs have high temperature and vomit violently. The vomit changes from white to yellow, and finally to green, with a small amount of blood streak; eyes' conjunctival congestion and tears; liking drinking water and vomiting after drinking; fecal jets are like tomato sauce, smelly and unpleasant; preferring to lie down; the number of white blood cells dropped sharply, together with severe dehydration, heart failure, and shock to death.
(§2) Anemoside B4 injection was intravenously injected, 2 mL/time in low-dose group, 4 mL/time in medium-dose group, 8 mL/time in high-dose group, once a day; anemoside B4 injection was intramuscularly injected, 1 mL/time in low-dose group, 2 mL/time in the middle-dose group, 4 mL/time in the high-dose group, twice a day; the treatment was kept for 14 days.

feline parvovirus = test: treatment of feline parvovirus; format: in vivo, cats; parameters: White blood cell count: unit not given here; conditions: 14 days, n = 10
Experimental: as §1
Cats suffering from feline parvovirus are cases received by various pet hospitals in Chengdu.
Cats occasionally having fever, severe vomiting, and diarrhea; the stool changing from gray to yellow and finally to milky white, accompanied by jelly-like mucus; stools liking tomato sauce, smelly and unpleasant; having a lying prone; the number of white blood cells dropping sharply, cold limbs, highly depressed spirit, then shock to death.
as §2

canine acute nephritis = test: treatment of canine acute nephritis; format: in vivo, dogs; conditions: 14 days, n = 10; for Positive rate of white blood cell (+++, %): urine
Experimental: as §1
Dogs suffering from acute nephritis are cases received by various pet hospitals in Chengdu city.
The sick dogs are characterized by loss of appetite, indigestion, depression, and a slight increase in body temperature.
as §2

[2] = high-dose, intramuscular injection 30 mL/time (50 mg/mL), twice per day, 4 days
[3] = high-dose, intrauterine infusion 30 mL/time (50 mg/mL), once every other day, 4 times
[4] = high-dose, intravenous injection 60 mL/time (50 mg/mL)
[5] = low-dose, intramuscular injection 10 mL/time (50 mg/mL), twice per day, 4 days
[6] = low-dose, intrauterine infusion 10 mL/time (50 mg/mL), once every other day, 4 times
[7] = low-dose, intravenous injection 20 mL/time (50 mg/mL)
[8] = medium-dose, intramuscular injection 20 mL/time (50 mg/mL), twice per day, 4 days
[9] = medium-dose, intrauterine infusion 20 mL/time (50 mg/mL), once every other day, 4 times
[10] = medium-dose, intravenous injection 40 mL/time (50 mg/mL)
[11] = high-dose, intravenous injection 60 mL (50 mg/mL), once a day, 4 days
[12] = high-dose, pulvis 1.5 g, external application, once every other day, 4 times
[13] = high-dose, subcutaneous injection 15 mL (50 mg/mL) in affected limbs, once a day, 4 days
[14] = low-dose, intravenous injection 20 mL (50 mg/mL), once a day, 4 days
[15] = low-dose, pulvis 0.5 g, external application, once every other day, 4 times
[16] = low-dose, subcutaneous injection 5 mL (50 mg/mL) in affected limbs, once a day, 4 days
[17] = medium-dose, intravenous injection 40 mL (50 mg/mL), once a day, 4 days
[18] = medium-dose, pulvis 1.0 g, external application, once every other day, 4 times
[19] = medium-dose, subcutaneous injection 10 mL (50 mg/mL) in affected limbs, once a day, 4 days
[20] = high-dose, intramuscular injection 4 mL/time (50 mg/mL), twice a day
[21] = high-dose, intravenous injection 8 mL/time (50 mg/mL), once a day
[22] = low-dose, intramuscular injection 1 mL/time (50 mg/mL), twice a day
[23] = low-dose, intravenous injection 2 mL/time (50 mg/mL), once a day
[24] = medium-dose, intramuscular injection 2 mL/time (50 mg/mL), twice a day
[25] = medium-dose, intravenous injection 4 mL/time (50 mg/mL), once a day

## C=C(C)[C@@H]1CC[C@]2(C(=O)O[C@@H]3O[C@H](CO[C@@H]4O[C@H](CO)[C@@H](O[C@@H]5O[C@@H](C)[C@H](O)[C@@H](O)[C@H]5O)[C@H](O)[C@H]4O)[C@@H](O)[C@H](O)[C@H]3O)CC[C@]3(C)[C@H](CC[C@@H]4[C@@]5(C)CC[C@H](O[C@@H]6OC[C@H](O)[C@H](O)[C@H]6O[C@@H]6O[C@@H](C)[C@H](O)[C@@H](O)[C@H]6O)[C@@](C)(CO)[C@@H]5CC[C@]43C)[C@H]12 [anemoside B4]
[1]; [2]
  Mean time of first estrus after medication: 25 ± 5.5 days
  Oestrus rate: 65* %
  Pregnancy rate in three estrous periods after delivery: 56* %
[1]; [3]
  Mean time of first estrus after medication: 23 ± 6.2 days
  Oestrus rate: 78* %
  Pregnancy rate in three estrous periods after delivery: 75* %
[1]; [4]
  Mean time of first estrus after medication: 24 ± 5.2 days
  Oestrus rate: 68* %
  Pregnancy rate in three estrous periods after delivery: 58* %
[1]; [5]
  Mean time of first estrus after medication: 27 ± 5.8 days
  Oestrus rate: 54%
  Pregnancy rate in three estrous periods after delivery: 42%
[1]; [6]
  Mean time of first estrus after medication: 25 ± 5.4 days
  Oestrus rate: 64%
  Pregnancy rate in three estrous periods after delivery: 52%
[1]; [7]
  Mean time of first estrus after medication: 27 ± 6.4 days
  Oestrus rate: 57%
  Pregnancy rate in three estrous periods after delivery: 46%
[1]; [8]
  Mean time of first estrus after medication: 26 ± 4.6 days
  Oestrus rate: 60%
  Pregnancy rate in three estrous periods after delivery: 52%
[1]; [9]
  Mean time of first estrus after medication: 24 ± 7.3 days
  Oestrus rate: 74* %
  Pregnancy rate in three estrous periods after delivery: 70* %
[1]; [10]
  Mean time of first estrus after medication: 26 ± 4.3 days
  Oestrus rate: 63%
  Pregnancy rate in three estrous periods after delivery: 52%
Cow foot rot disease; high-dose subcutaneous injection group, middle- and high-dose pulvis groups
  cure rate: above 80%
Cow foot rot disease; [11]
  Milk production (daily yield): 22.2 ± 1.5 kg/cow
  Total number of cured cows: 6
Cow foot rot disease; [12]
  Milk production (daily yield): 25.9 ± 2.4 kg/cow
  Total number of cured cows: 9
Cow foot rot disease; [13]
  Milk production (daily yield): 25.6 ± 2.8 kg/cow
  Total number of cured cows: 8
Cow foot rot disease; [14]
  Milk production (daily yield): 18.2 ± 1.4 kg/cow
  Total number of cured cows: 4
Cow foot rot disease; [15]
  Milk production (daily yield): 22.6 ± 2.5 kg/cow
  Total number of cured cows: 6
Cow foot rot disease; [16]
  Milk production (daily yield): 20.4 ± 1.9 kg/cow
  Total number of cured cows: 5
Cow foot rot disease; [17]
  Milk production (daily yield): 20.8 ± 2.2 kg/cow
  Total number of cured cows: 5
Cow foot rot disease; [18]
  Milk production (daily yield): 24.2 ± 1.7 kg/cow
  Total number of cured cows: 8
Cow foot rot disease; [19]
  Milk production (daily yield): 22.1 ± 1.6 kg/cow
  Total number of cured cows: 7
Canine parvovirus; [20]
  Body temperature: 37.8 ± 0.4 °C
  Mortality rate: 50%
  White blood cell count: 6.2 ± 0.5 ×10^9
Canine parvovirus; [21]
  Body temperature: 37.4 ± 0.2 °C
  Mortality rate: 30%
  White blood cell count: 8.2 ± 0.7 ×10^9
Canine parvovirus; [22]
  Body temperature: 39.2 ± 0.5 °C
  Mortality rate: 80%
  White blood cell count: 3.3 ± 0.3 ×10^9
Canine parvovirus; [23]
  Body temperature: 38.2 ± 0.5 °C
  Mortality rate: 50%
  White blood cell count: 6.3 ± 0.4 ×10^9
Canine parvovirus; [24]
  Body temperature: 38.4 ± 0.3 °C
  Mortality rate: 60%
  White blood cell count: 4.6 ± 0.8 ×10^9
Canine parvovirus; [25]
  Body temperature: 37.6 ± 0.3 °C
  Mortality rate: 40%
  White blood cell count: 7.6 ±0.6 ×10^9
Feline parvovirus; [20]
  Mortality rate: 50%
  White blood cell count: 9.1 ± 0.5 ×10^9
Feline parvovirus; [21]
  Mortality rate: 40%
  White blood cell count: 9.3 ± 0.9 ×10^9
Feline parvovirus; [22]
  Mortality rate: 90%
  White blood cell count: 4.7 ± 0.3 ×10^9
Feline parvovirus; [23]
  Mortality rate: 80%
  White blood cell count: 7.7 ± 0.4 ×10^9
Feline parvovirus; [24]
  Mortality rate: 70%
  White blood cell count: 7.8 ± 0.6 ×10^9
Feline parvovirus; [25]
  Mortality rate: 60%
  White blood cell count: 8.8 ± 0.7 ×10^9
Canine acute nephritis; [20]
  Body temperature: 39.0 ± 0.2 °C
  Mortality rate: 50%
  Positive rate of urine protein (+++, %): 60%
  Urine specific gravity: 1.064 ± 0.02
  Positive rate of white blood cell (+++, %): 70%
Canine acute nephritis; [21]
  Body temperature: 38.5 ± 0.4 °C
  Mortality rate: 30%
  Positive rate of urine protein (+++, %): 30%
  Urine specific gravity: 1.003 ± 0.01
  Positive rate of white blood cell (+++, %): 30%
Canine acute nephritis; [22]
  Body temperature: 39.5 ± 0.3 °C
  Mortality rate: 60%
  Positive rate of urine protein (+++, %): 80%
  Urine specific gravity: 1.123 ± 0.01
  Positive rate of white blood cell (+++, %): 80%
Canine acute nephritis; [23]
  Body temperature: 38.7 ± 0.5 °C
  Mortality rate: 50%
  Positive rate of urine protein (+++, %): 50%
  Urine specific gravity: 1.017 ± 0.25
  Positive rate of white blood cell (+++, %): 60%
Canine acute nephritis; [24]
  Body temperature: 39.3 ± 0.4 °C
  Mortality rate: 60%
  Positive rate of urine protein (+++, %): 70%
  Urine specific gravity: 1.094 ± 0.04
  Positive rate of white blood cell (+++, %): 80%
Canine acute nephritis; [25]
  Body temperature: 38.8 ± 0.3 °C
  Mortality rate: 40%
  Positive rate of urine protein (+++, %): 40%
  Urine specific gravity: 1.005 ± 0.09
  Positive rate of white blood cell (+++, %): 40%
